Experimental data reported in PubChem BioAssay (NCI).
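Assay format: 96-well plates, 48-hour exposure. Here, GI50 denotes the concentration required for 50% inhibition of growth. The concentration for full growth arrest is given as TGI.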

Key:
Test in all cases: NCI-60 cell line screen, 48 h
786-0 renal = test system: 786-0 renal
A498 renal = test system: A498 renal
A549 NSCLC = test system: A549 NSCLC
ACHN renal = test system: ACHN renal
BT-549 breast = test system: BT-549 breast
CAKI-1 renal = test system: CAKI-1 renal
COLO 205 colon = test system: COLO 205 colon
DU-145 prostate = test system: DU-145 prostate
EKVX NSCLC = test system: EKVX NSCLC
HCC-2998 colon = test system: HCC-2998 colon
HCT-116 colon = test system: HCT-116 colon
HCT-15 colon = test system: HCT-15 colon
HL-60(TB) leukemia = test system: HL-60(TB) leukemia
HOP-62 NSCLC = test system: HOP-62 NSCLC
HOP-92 NSCLC = test system: HOP-92 NSCLC
HS 578T breast = test system: HS 578T breast
IGROV1 ovarian = test system: IGROV1 ovarian
K-562 leukemia = test system: K-562 leukemia
KM12 colon = test system: KM12 colon
LOX IMVI melanoma = test system: LOX IMVI melanoma
M14 melanoma = test system: M14 melanoma
MCF7 breast = test system: MCF7 breast
MDA-MB-231 breast = test system: MDA-MB-231 breast
MDA-MB-435 = test system: MDA-MB-435
MOLT-4 leukemia = test system: MOLT-4 leukemia
NCI-H226 lung = test system: NCI-H226 lung
NCI-H23 lung = test system: NCI-H23 lung
NCI-H460 lung = test system: NCI-H460 lung
NCI-H522 lung = test system: NCI-H522 lung
NCI/ADR-RES ovarian = test system: NCI/ADR-RES ovarian
OVCAR-3 ovarian = test system: OVCAR-3 ovarian
OVCAR-4 ovarian = test system: OVCAR-4 ovarian
OVCAR-5 ovarian = test system: OVCAR-5 ovarian
OVCAR-8 ovarian = test system: OVCAR-8 ovarian
PC-3 prostate = test system: PC-3 prostate
RPMI-8226 leukemia = test system: RPMI-8226 leukemia
SF-268 CNS = test system: SF-268 CNS
SF-295 CNS = test system: SF-295 CNS
SF-539 CNS = test system: SF-539 CNS
SK-MEL-2 melanoma = test system: SK-MEL-2 melanoma
SK-MEL-28 melanoma = test system: SK-MEL-28 melanoma
SK-MEL-5 melanoma = test system: SK-MEL-5 melanoma
SK-OV-3 ovarian = test system: SK-OV-3 ovarian
SN12C renal = test system: SN12C renal
SNB-19 CNS = test system: SNB-19 CNS
SNB-75 CNS = test system: SNB-75 CNS
SW-620 colon = test system: SW-620 colon
T-47D breast = test system: T-47D breast
TK-10 renal = test system: TK-10 renal
U251 CNS = test system: U251 CNS
UACC-257 melanoma = test system: UACC-257 melanoma
UACC-62 melanoma = test system: UACC-62 melanoma
UO-31 renal = test system: UO-31 renal

**Q.** Which results are given for `COc1ccc(OC)c(/C=C/C(=O)c2ccc3cc(OC)ccc3c2)c1`?
**A.** GI50 (786-0 renal): > 11.7 µM; TGI (786-0 renal): > 50 µM; GI50 (A498 renal): 12.2 µM; TGI (A498 renal): > 31.9 µM; GI50 (A549 NSCLC): 9.52 µM; TGI (A549 NSCLC): > 32.4 µM; TGI (ACHN renal): > 32.9 µM; GI50 (BT-549 breast): 7.01 µM; TGI (BT-549 breast): > 37.4 µM; GI50 (CAKI-1 renal): 1200 nM; TGI (CAKI-1 renal): 10.6 µM; GI50 (COLO 205 colon): 6.81 µM; TGI (COLO 205 colon): > 14.8 µM; TGI (DU-145 prostate): > 20.7 µM; GI50 (EKVX NSCLC): > 12.3 µM; TGI (EKVX NSCLC): > 50 µM; GI50 (HCC-2998 colon): 795 nM; TGI (HCC-2998 colon): 2440 nM; GI50 (HCT-116 colon): > 15 µM; TGI (HCT-116 colon): > 50 µM; TGI (HCT-15 colon): > 50 µM; GI50 (HL-60(TB) leukemia): 4.93 µM; TGI (HL-60(TB) leukemia): > 39.4 µM; GI50 (HOP-62 NSCLC): 9.71 µM; TGI (HOP-62 NSCLC): > 50 µM; GI50 (HOP-92 NSCLC): 12.4 µM; TGI (HOP-92 NSCLC): > 50 µM; GI50 (HS 578T breast): > 33.3 µM; TGI (HS 578T breast): > 50 µM; TGI (IGROV1 ovarian): > 14.5 µM; GI50 (K-562 leukemia): 6.46 µM; TGI (K-562 leukemia): > 50 µM; GI50 (KM12 colon): 3.02 µM; TGI (KM12 colon): 11.2 µM; GI50 (LOX IMVI melanoma): 48 µM; TGI (LOX IMVI melanoma): > 50 µM; GI50 (M14 melanoma): > 23.4 µM; TGI (M14 melanoma): > 50 µM; GI50 (MCF7 breast): 11.4 µM; TGI (MCF7 breast): > 50 µM; GI50 (MDA-MB-231 breast): > 50 µM; TGI (MDA-MB-231 breast): > 50 µM; GI50 (MDA-MB-435): 641 nM; TGI (MDA-MB-435): 1880 nM; GI50 (MOLT-4 leukemia): 7.74 µM; TGI (MOLT-4 leukemia): 26.1 µM; GI50 (NCI-H226 lung): > 50 µM; TGI (NCI-H226 lung): > 50 µM; TGI (NCI-H23 lung): > 14.3 µM; GI50 (NCI-H460 lung): 10.3 µM; TGI (NCI-H460 lung): > 50 µM; TGI (NCI-H522 lung): > 14 µM; TGI (NCI/ADR-RES ovarian): > 13.8 µM; GI50 (OVCAR-3 ovarian): 1640 nM; TGI (OVCAR-3 ovarian): 11.9 µM; GI50 (OVCAR-4 ovarian): 10.8 µM; TGI (OVCAR-4 ovarian): > 50 µM; GI50 (OVCAR-5 ovarian): > 11.6 µM; TGI (OVCAR-5 ovarian): > 50 µM; TGI (OVCAR-8 ovarian): > 11.9 µM; GI50 (PC-3 prostate): 6.71 µM; TGI (PC-3 prostate): > 50 µM; GI50 (RPMI-8226 leukemia): 4.53 µM; TGI (RPMI-8226 leukemia): > 37.8 µM; GI50 (SF-268 CNS): > 14.3 µM; TGI (SF-268 CNS): > 50 µM; GI50 (SF-295 CNS): 1500 nM; TGI (SF-295 CNS): 12.2 µM; TGI (SF-539 CNS): > 12.6 µM; GI50 (SK-MEL-2 melanoma): > 14.9 µM; TGI (SK-MEL-2 melanoma): > 50 µM; GI50 (SK-MEL-28 melanoma): 3.74 µM; TGI (SK-MEL-28 melanoma): > 50 µM; GI50 (SK-MEL-5 melanoma): 6.4 µM; TGI (SK-MEL-5 melanoma): > 24.3 µM; GI50 (SK-OV-3 ovarian): 1040 nM; TGI (SK-OV-3 ovarian): 2370 nM; TGI (SN12C renal): > 13.1 µM; TGI (SNB-19 CNS): > 17.2 µM; GI50 (SNB-75 CNS): 1780 nM; TGI (SNB-75 CNS): 4.53 µM; TGI (SW-620 colon): > 50 µM; GI50 (T-47D breast): 811 nM; TGI (T-47D breast): 3.33 µM; GI50 (TK-10 renal): 3.84 µM; TGI (TK-10 renal): > 50 µM; GI50 (U251 CNS): 7.19 µM; TGI (U251 CNS): > 50 µM; GI50 (UACC-257 melanoma): 7.05 µM; TGI (UACC-257 melanoma): > 27.8 µM; GI50 (UACC-62 melanoma): 5.52 µM; TGI (UACC-62 melanoma): > 12.2 µM; TGI (UO-31 renal): > 15.2 µM
